Test results as given in article PMC12582325 (Proceedings of the National Academy of Sciences of the …, 2025).
Values joined by “and” are separate entries in the source; they are usually repeats but may differ in a detail not shown here. Equal entries are not always repeated. “Also recorded” adds a separate entry of the source. Where two headings read alike, the source gives them in different places. Where a SMILES comes first, the peptide text is derived from it.

Experiments:
[1] = tested on: Bb.Ste2; type: cell-based, Beauveria bassiana
[2] = tested on: Bc.Ste2; type: cell-based, Botrytis cinerea
[3] = molecular target: T1, Sc Ste2 (Saccharomyces cerevisiae, UniProt D6VTK4); type: cell-based
T1 construct: The native Sc system and an empty construct were added as positive and negative controls; endogenous in cells; host or cells: Saccharomyces cerevisiae wild-type control strains GEN18 (MATa) and GEN27 (MATα)
T1 sequence (D6VTK4 1-431): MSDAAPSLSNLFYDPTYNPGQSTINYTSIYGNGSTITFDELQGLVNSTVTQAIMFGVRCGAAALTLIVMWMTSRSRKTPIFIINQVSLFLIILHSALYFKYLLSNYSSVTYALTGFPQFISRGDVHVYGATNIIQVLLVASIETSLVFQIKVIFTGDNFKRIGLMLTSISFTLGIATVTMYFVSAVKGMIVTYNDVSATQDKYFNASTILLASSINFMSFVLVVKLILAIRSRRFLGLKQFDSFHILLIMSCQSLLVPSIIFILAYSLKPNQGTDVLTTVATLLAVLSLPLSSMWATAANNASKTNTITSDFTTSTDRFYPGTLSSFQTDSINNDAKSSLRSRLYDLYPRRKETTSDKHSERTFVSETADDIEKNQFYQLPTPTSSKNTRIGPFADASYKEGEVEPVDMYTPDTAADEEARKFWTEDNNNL

[4] = tested on: Fo.Ste2; type: cell-based, Fusarium oxysporum
[5] = tested on: Bb.Ste2; type: cell-based, Beauveria bassiana; settings: for Diploid frequency (%): 20 h coculture; for diploid frequency (%) / average (diploid colonies): GPCR strain GEN47 HIS; for average (diploid colonies): dilution 500, mean of Rep1-3
[6] = tested on: Bc.Ste2; type: cell-based, Botrytis cinerea; remark: listed apart in the source
[7] = tested on: Mo Ste2 GPCR; type: cell-based, Magnaporthe oryzae; settings: Fig. 1D mating matrix; pheromone secreted by MATa strain, GPCR in MATα strain; deep well plate, 20 h coculture; three technical plating replicates
[8] = tested on: empty (strain lacking a GPCR); type: cell-based, Saccharomyces cerevisiae; settings: Fig. 1D mating matrix; pheromone secreted by MATa strain, MATα strain lacking a GPCR (empty); deep well plate, 20 h coculture
[9] = tested on: Bb.Ste2; type: cell-based, Beauveria bassiana; settings: YPL1 library cocultured with Bb.Ste2 strain GEN88, 20 h, 2 d diploid enrichment, NextSeq 500
[10] = tested on: Fg.Ste2; type: cell-based, Fusarium graminearum; settings: YPL1 library cocultured with Fg.Ste2 strain GEN87, 20 h, 2 d diploid enrichment, NextSeq 500
[11] = tested on: Fo.Ste2; type: cell-based, Fusarium oxysporum; remark: listed apart in the source
[12] = tested on: Fg.Ste2; settings: for barcode qPCR of diploids, Fg.Ste2 x pheromone strain: consortium, individual replicates (n=3), listed as Fo.Pheromone
[13] = tested on: Bb.Ste2; type: cell-based, Beauveria bassiana; remark: listed apart in the source
[14] = tested on: F. oxysporum microconidia; assay: Germination of F. oxysporum microconidia; type: cell-based, Fusarium oxysporum f. sp. lycopersici 4287; parameters: Germination of F. oxysporum microconidia (data of Sup.Fig.10): unit not given here; settings: for Germination of F. oxysporum microconidia (data of Sup.Fig.10): 400 μM pheromone, 13 h, at least 300 spores counted
Protocol: For F. oxysporum microconidia production, the strain was grown for 3 to 4 d in liquid potato dextrose broth (PDB) at 28 °C and 170 rpm. Germination media ([10]) was used for assessing the spore germination. RE was prepared by removing 2-wk-old tomato plants from vermiculite and washing the roots to remove any adhering substrates ([11]).
Supplementary Figure 10. Germination of F. oxysporum microconidia after 13 h of incubation in Germination Media at a cell density of […] microconidia/mL. The assay was performed with 400 μM of pheromone. All points represent the average of three biological replicates in which at least 300 spores were counted. Statistical significance was determined through one-way analysis of variance (ANOVA) with Dunnett’s multiple comparisons (✱p ≤ 0.05).

[15] = tested on: F. oxysporum infection of tomato plants; assay: Tomato plant mortality assay; type: in vivo, Fusarium oxysporum / Solanum lycopersicum; settings: groups of 10 plants; 3.2 × 10^6 microconidia/mL supplemented with pheromone once at inoculation; 50 d; Kaplan-Meier, log-rank
Protocol: Tomato plant infection assays were performed as described ([61]) with F. oxysporum microconidia and treatment inoculation as described above. Plants were transferred to a growth and plant survival was recorded daily for 50 d. Plant death was diagnosed as a complete collapse of the stem, without any green parts left. The Kaplan–Meier test was used to assess statistical significance of differences in survival among groups using the log-rank test in GraphPad Prism. The infection experiment was conducted two times with 10 plants per condition.

[16] = tested on: F. oxysporum in tomato roots; assay: Quantification of fungal DNA in tomato roots (qPCR); settings: 3 d after inoculation, washed roots; compared to the untreated infected roots; three biological replicates

Compound: C[C@@H](O)[C@H](NC(=O)[C@H](CS)NC(=O)[C@@H](N)Cc1c[nH]c2ccccc12)C(=O)N[C@@H](Cc1c[nH]c2ccccc12)C(=O)N[C@@H](CCCNC(=N)N)C(=O)NCC(=O)N[C@@H](CCC(N)=O)C(=O)N1CCC[C@H]1C(=O)N[C@@H](CS)C(=O)N[C@@H](Cc1c[nH]c2ccccc12)C(=O)O [Fo] (H-WCTWRGQPCW-OH; N-terminus assumed)
- Activation of Bb.Ste2 biosensor, in words [1]: higher EC50 values
- EC50 fold higher than that of the Bb pheromone [1]: 3,910 fold
- Fold change yEGFP [1]: 178
- Hillslope [1]: 1.951
- half-maximal effective concentration (EC50) [1]: 958 nM
- logEC50 [1]: -6.019
- Effect on activation of Bc.Ste2 by Bc pheromone, in words ([2]; 0.0005 μM Bc pheromone in combination with 10 μM peptide, four biological replicates, Fig. 2G): do not differ significantly from Bc alone; also recorded: no such effect
- Bc.Ste2 + pheromones, biosensor response, group mean ([2]; Bc + the named peptide, Bc alone mean 134.8, mean of n = 4): 104.9
- Diploid frequency (%) [3]: 0.0%
- Sup.Fig.7A - Fo, group mean [4]: 0.3879 and 0.4515
- average (diploid colonies) [4]: 68 and 129.67 and 80.33
- diploid frequency (%) [4]: 19.26% and 31.27% and 21.99%
- diploid frequency (%), Plates, Fo [4]: 1.52% and 3.25% and 5.49%
- diploid frequency (%), Plates, Fo ([4]; pH=6): 1.9% and 1.65% and 1.4%
- diploid frequency (%), Plates, Fo ([4]; pH=7): 1.27% and 1.02% and 0.39%
- Sup.Fig.7A - Fo, group mean ([4]; ph=6): 0.422
- Sup.Fig.7A - Fo, group mean ([4]; ph=7): 0.4837
- Diploid frequency (%) ([5]; Fig. 1D mating matrix, pheromone secreted by MATa strain, GPCR in MATα strain, deep well plate, three technical plating replicates): 0.7%
- Diploid frequency (%) ([5]; Fig. 1F validation in culture tubes, secreted pheromone, three biological and three technical replicates): 4.9%
- diploid frequency (%) ([5]; co-culture replicate 1): 4.61%
- average (diploid colonies) ([5]; co-culture replicate 1): 22
- diploid frequency (%) ([5]; co-culture replicate 2): 3.74%
- average (diploid colonies) ([5]; co-culture replicate 2): 17.67
- diploid frequency (%) ([5]; co-culture replicate 3): 6.44%
- average (diploid colonies) ([5]; co-culture replicate 3): 31.33
- Diploid frequency (%) [6]: 0.1% and 0.3%
- average (diploid colonies) [6]: 0.67 and 1
- diploid frequency (%) [6]: 0.19% and 0.28%
- Diploid frequency (%) [7]: 0.0%
- Diploid frequency (%) [8]: 0.1%
- Enrichment after mating, reads per million minus library before coculture [9]: > 340,000 RPM
- Enrichment after mating, reads per million minus library before coculture [10]: > 340,000 RPM
- barcode qPCR of diploids, Fo.Ste2 x pheromone strain [11]: 0.439
- Sup.Fig.7B - Fo, group mean ([11]; pH=6): 1.65
- Sup.Fig.7B - Fo, group mean ([11]; pH=7): 0.8933
- qPCR, Fo + Fo ([11]; ph=6): 0.386 and 0.413 and 0.467
- qPCR, Fo + Fo ([11]; ph=7): 0.660 and 0.439 and 0.352
- barcode qPCR of diploids, Fg.Ste2 x pheromone strain ([12]; SC-AS/Urea): 0.002 and 0.005 and 0.018
- barcode qPCR of diploids, Fg.Ste2 x pheromone strain ([12]; SC): 0.005 (2×) and 0.013
- diploid barcode qPCR signal relative to control (2^-dCt) ([12]; section A4, (GPCR strain) Fg, mean of Bio1-3): 0.118
- diploid barcode qPCR signal relative to control (2^-dCt) ([12]; section A4, column Fg, replicate Bio1): 0.012
- diploid barcode qPCR signal relative to control (2^-dCt) ([12]; section A4, column Fg, replicate Bio2): 0.1
- diploid barcode qPCR signal relative to control (2^-dCt) ([12]; section A4, column Fg, replicate Bio3): 0.242
- diploid barcode qPCR signal relative to control (2^-dCt) ([12]; section Cm, (GPCR strain) Fg, mean of Bio1-3): 0.038
- diploid barcode qPCR signal relative to control (2^-dCt) ([12]; section Cm, column Fg, replicate Bio1): 0.014
- diploid barcode qPCR signal relative to control (2^-dCt) ([12]; section Cm, column Fg, replicate Bio2): 0.066
- diploid barcode qPCR signal relative to control (2^-dCt) ([12]; section Cm, column Fg, replicate Bio3): 0.033
- diploid barcode qPCR signal relative to control (2^-dCt) ([12]; section SC, (GPCR strain) Fg, mean of Bio1-3): 0.0075
- diploid barcode qPCR signal relative to control (2^-dCt) ([12]; section SC, column Fg, replicate Bio1): 0.005
- diploid barcode qPCR signal relative to control (2^-dCt) ([12]; section SC, column Fg, replicate Bio2): 0.005
- diploid barcode qPCR signal relative to control (2^-dCt) ([12]; section SC, column Fg, replicate Bio3): 0.013
- diploid barcode qPCR signal relative to control (2^-dCt) ([12]; section Scramble, (GPCR strain) Fg, mean of Bio1-3): 0.0276
- diploid barcode qPCR signal relative to control (2^-dCt) ([12]; section Scramble, column Fg, replicate Bio1): 0.025
- diploid barcode qPCR signal relative to control (2^-dCt) ([12]; section Scramble, column Fg, replicate Bio2): 0.022
- diploid barcode qPCR signal relative to control (2^-dCt) ([12]; section Scramble, column Fg, replicate Bio3): 0.036
- diploid barcode qPCR signal relative to control (2^-dCt) [13]: 0
- Germination of F. oxysporum microconidia (data of Sup.Fig.10) ([14]; biological replicate 1 (first line)): 23,4
- Germination of F. oxysporum microconidia (data of Sup.Fig.10) ([14]; biological replicate 2 (second line)): 23,3
- Germination of F. oxysporum microconidia (data of Sup.Fig.10) ([14]; biological replicate 3 (third line)): 13,3
- Mean Diff, Solvent vs. peptide ([14]; Sup.Fig.10, Dunnett's multiple comparisons test, n = 3): 23,77
- Mean 2 (peptide), germination ([14]; Sup.Fig.10, Solvent control mean 43,77, mean of n = 3): 20,00
- Effect on F. oxysporum microconidia germination, in words ([14]; exogenous addition of 400 μM peptide, 13 h in Germination Media, 3.2 x 106 microconidia/mL): significant reduction
- Tomato plant survival [15]: no significant difference in plant survival
- Fungal biomass in inoculated tomato roots (qPCR of Fol4287 actin gene, 2^−ΔΔCt, normalized to tomato gapdh) [16]: significant reduction in fungal biomass
